Results taken from ChEMBL document CHEMBL1201862, “PubChem BioAssay data set” (2004).
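Grown in 96-well plates, cells were treated for 48 hours with each compound at five concentrations. Insufficient inhibition: endpoint recorded as highest concentration tested. GI50: concentration for 50% inhibition of growth.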 Activity calls are given as the source filed them. Cut-off read from the data, not from the text of the source: active = GI50 up to about 1.1 µM and inactive = higher.

What was measured:
Assay in all cases: inhibition of tumour cell growth, NCI panel, 48 h
[1] = tested on: RPMI-8226
[2] = tested on: HCT-15
[3] = tested on: HOP-92
[4] = tested on: UACC-62
[5] = tested on: Hs-578T
[6] = tested on: BT-549
[7] = tested on: UACC-257
[8] = tested on: ACHN
[9] = tested on: NCI-H522
[10] = tested on: EKVX
[11] = tested on: SK-MEL-5
[12] = tested on: HCT-116
[13] = tested on: LOX IMVI
[14] = tested on: SNB-19
[15] = tested on: KM12
[16] = tested on: CAKI-1
[17] = tested on: SF-295
[18] = tested on: PC-3
[19] = tested on: SW-620
[20] = tested on: IGROV-1
[21] = tested on: MCF7
[22] = tested on: SNB-75
[23] = tested on: RXF 393
[24] = tested on: SK-OV-3
[25] = tested on: Malme-3M
[26] = tested on: OVCAR-8
[27] = tested on: NCI/ADR-RES
[28] = tested on: SN12C
[29] = tested on: MOLT-4
[30] = tested on: HCC 2998
[31] = tested on: MDA-MB-231
[32] = tested on: HT-29
[33] = tested on: TK-10
[34] = tested on: SK-MEL-2
[35] = tested on: COLO 205
[36] = tested on: SF-268
[37] = tested on: U-251
[38] = tested on: 786-0
[39] = tested on: SF-539
[40] = tested on: MDA-MB-435
[41] = tested on: OVCAR-4
[42] = tested on: A498
[43] = tested on: NCI-H460
[44] = tested on: K562
[45] = tested on: NCI-H226
[46] = tested on: A549
[47] = tested on: CCRF-CEM
[48] = tested on: HOP-62
[49] = tested on: SK-MEL-28
[50] = tested on: OVCAR-5
[51] = tested on: M14
[52] = tested on: MDA-N
[53] = tested on: T47D
[54] = tested on: HL-60
[55] = tested on: NCI-H23
[56] = tested on: OVCAR-3
[57] = tested on: DU-145
[58] = tested on: UO-31
[59] = tested on: SR

## Cc1ccc(-c2c(C#N)c(-c3ccccc3)c(C#N)c(=O)n2NS(=O)(=O)c2ccc(C)cc2)cc1
[1]
  GI50: 2.75 µM (inactive)
[2]
  GI50: 22.2 µM
[3]
  GI50: 20.8 µM (inactive)
[4]
  GI50: 23.3 µM (inactive)
[5]
  GI50: > 100 µM (inactive)
[6]
  GI50: 70.1 µM (inactive)
[7]
  GI50: 56.1 µM (inactive)
[8]
  GI50: 33.3 µM (inactive)
[9]
  GI50: 56.9 µM (inactive)
[10]
  GI50: 72.1 µM (inactive)
[11]
  GI50: 12.6 µM (inactive)
[12]
  GI50: 22.9 µM (inactive)
[13]
  GI50: 19.8 µM (inactive)
[14]
  GI50: 5.56 µM (inactive)
[15]
  GI50: 38.5 µM (inactive)
[16]
  GI50: 48.4 µM (inactive)
[17]
  GI50: 24 µM (inactive)
[18]
  GI50: 35 µM (inactive)
[19]
  GI50: 14.8 µM (inactive)
[20]
  GI50: 48.1 µM (inactive)
[21]
  GI50: 35.4 µM (inactive)
[22]
  GI50: > 100 µM (inactive)
[23]
  GI50: 62.2 µM (inactive)
[24]
  GI50: 79.8 µM (inactive)
[25]
  GI50: > 100 µM (inactive)
[26]
  GI50: 52.7 µM (inactive)
[27]
  GI50: > 100 µM (inactive)
[28]
  GI50: 61.2 µM (inactive)
[29]
  GI50: 12.9 µM (inactive)
[30]
  GI50: 19.9 µM (inactive)
[31]
  GI50: > 100 µM (inactive)
[32]
  GI50: 50.6 µM (inactive)
[33]
  GI50: 40.7 µM (inactive)
[34]
  GI50: 35.7 µM (inactive)
[35]
  GI50: 95.9 µM (inactive)
[36]
  GI50: > 100 µM (inactive)
[37]
  GI50: 45.2 µM (inactive)
[38]
  GI50: 44.6 µM (inactive)
[39]
  GI50: 13.3 µM (inactive)
[40]
  GI50: 48.9 µM (inactive)
[41]
  GI50: 45.7 µM (inactive)
[42]
  GI50: 27.4 µM (inactive)
[43]
  GI50: 15.7 µM (inactive)
[44]
  GI50: 40.3 µM (inactive)
[45]
  GI50: 83.9 µM (inactive)
[46]
  GI50: 34.4 µM (inactive)
[47]
  GI50: 19.6 µM (inactive)
[48]
  GI50: 50.4 µM (inactive)
[49]
  GI50: 52.2 µM (inactive)
[50]
  GI50: > 100 µM (inactive)
[51]
  GI50: 31 µM (inactive)

## CC(C)(C)NCc1cc(Nc2ccnc3cc(Cl)ccc23)cc(-c2ccc(Cl)cc2)c1O
[1]
  GI50: 1.69 µM (inactive)
[2]
  GI50: 2.44 µM
[3]
  GI50: 1.87 µM (inactive)
[4]
  GI50: 1.92 µM (inactive)
[5]
  GI50: 3.43 µM (inactive)
[52]
  GI50: 1.68 µM (inactive)
[7]
  GI50: 2.03 µM (inactive)
[8]
  GI50: 4.29 µM (inactive)
[9]
  GI50: 3.65 µM (inactive)
[10]
  GI50: 3.72 µM (inactive)
[11]
  GI50: 1.77 µM (inactive)
[12]
  GI50: 2.08 µM (inactive)
[13]
  GI50: 2.17 µM (inactive)
[53]
  GI50: 3.27 µM (inactive)
[14]
  GI50: 4.44 µM (inactive)
[54]
  GI50: 1.97 µM (inactive)
[55]
  GI50: 3.64 µM (inactive)
[15]
  GI50: 3.5 µM (inactive)
[16]
  GI50: 2.99 µM (inactive)
[17]
  GI50: 2.5 µM (inactive)
[18]
  GI50: 1.99 µM (inactive)
[19]
  GI50: 2.26 µM (inactive)
[56]
  GI50: 2.66 µM (inactive)
[20]
  GI50: 2.02 µM (inactive)
[21]
  GI50: 1.6 µM (inactive)
[22]
  GI50: 2.02 µM (inactive)
[23]
  GI50: 1.79 µM (inactive)
[57]
  GI50: 4.53 µM (inactive)
[24]
  GI50: 3.07 µM (inactive)
[25]
  GI50: 1.84 µM (inactive)
[26]
  GI50: 3.81 µM (inactive)
[27]
  GI50: 3.05 µM (inactive)
[28]
  GI50: 3.11 µM (inactive)
[58]
  GI50: 4.17 µM (inactive)
[29]
  GI50: 1.82 µM (inactive)
[30]
  GI50: 2.21 µM (inactive)
[31]
  GI50: 3 µM (inactive)
[32]
  GI50: 1.87 µM (inactive)
[33]
  GI50: 2.43 µM (inactive)
[34]
  GI50: 2.24 µM (inactive)
[35]
  GI50: 1.81 µM (inactive)
[36]
  GI50: 3.48 µM (inactive)
[37]
  GI50: 2.59 µM (inactive)
[38]
  GI50: 1.87 µM (inactive)
[39]
  GI50: 1.85 µM (inactive)
[40]
  GI50: 1.91 µM (inactive)
[41]
  GI50: 3.36 µM (inactive)
[42]
  GI50: 2.94 µM (inactive)
[43]
  GI50: 2.03 µM (inactive)
[44]
  GI50: 1.04 µM (active)
[45]
  GI50: 6.12 µM (inactive)
[46]
  GI50: 5.4 µM (inactive)
[47]
  GI50: 0.809 µM (active)
[48]
  GI50: 2.06 µM (inactive)
[49]
  GI50: 1.72 µM (inactive)
[50]
  GI50: 4.68 µM (inactive)
[51]
  GI50: 2.18 µM (inactive)
[59]
  GI50: 1.21 µM (inactive)

## CC1=CCC[C@H]2[C@](C)(CC3=CC(=O)C(Sc4ccccc4)=CC3=O)[C@@H](C)CC[C@]12C
[2]
  GI50: 19.2 µM
[4]
  GI50: 21.7 µM (inactive)
[6]
  GI50: 19.5 µM (inactive)
[52]
  GI50: 18.5 µM (inactive)
[7]
  GI50: 15.9 µM (inactive)
[8]
  GI50: 19.2 µM (inactive)
[10]
  GI50: 20.2 µM (inactive)
[11]
  GI50: 17.2 µM (inactive)
[12]
  GI50: 16.6 µM (inactive)
[14]
  GI50: 20.5 µM (inactive)
[15]
  GI50: 41.6 µM (inactive)
[16]
  GI50: 17.1 µM (inactive)
[17]
  GI50: 17.3 µM (inactive)
[18]
  GI50: 23 µM (inactive)
[19]
  GI50: 16.9 µM (inactive)
[56]
  GI50: 16.6 µM (inactive)
[22]
  GI50: 20.4 µM (inactive)
[57]
  GI50: 22.5 µM (inactive)
[26]
  GI50: 13.6 µM (inactive)
[27]
  GI50: 17.1 µM (inactive)
[28]
  GI50: 17.7 µM (inactive)
[58]
  GI50: 15.7 µM (inactive)
[30]
  GI50: 20.4 µM (inactive)
[31]
  GI50: 21.4 µM (inactive)
[35]
  GI50: 14.5 µM (inactive)
[37]
  GI50: 18.1 µM (inactive)
[38]
  GI50: 18.2 µM (inactive)
[39]
  GI50: 19.8 µM (inactive)
[41]
  GI50: 19.7 µM (inactive)
[42]
  GI50: 19.9 µM (inactive)
[43]
  GI50: 20 µM (inactive)
[45]
  GI50: 14.7 µM (inactive)
[46]
  GI50: 17.5 µM (inactive)
[48]
  GI50: 16.9 µM (inactive)
[49]
  GI50: 20.9 µM (inactive)
[50]
  GI50: 17.1 µM (inactive)
[51]
  GI50: 16.7 µM (inactive)
[59]
  GI50: 21.8 µM (inactive)

## CC(C)=CCN(N=O)c1ncnc2[nH]cnc12
[1]
  GI50: 88.1 µM (inactive)
[3]
  GI50: > 100 µM (inactive)
[5]
  GI50: > 100 µM (inactive)
[52]
  GI50: > 100 µM (inactive)
[7]
  GI50: > 100 µM (inactive)
[8]
  GI50: > 100 µM (inactive)
[9]
  GI50: > 100 µM (inactive)
[10]
  GI50: > 100 µM (inactive)
[11]
  GI50: > 100 µM (inactive)
[12]
  GI50: > 100 µM (inactive)
[13]
  GI50: 92.5 µM (inactive)
[53]
  GI50: 94.6 µM (inactive)
[14]
  GI50: > 100 µM (inactive)
[54]
  GI50: > 100 µM (inactive)
[55]
  GI50: > 100 µM (inactive)
[15]
  GI50: > 100 µM (inactive)
[16]
  GI50: > 100 µM (inactive)
[17]
  GI50: > 100 µM (inactive)
[18]
  GI50: 94.6 µM (inactive)
[19]
  GI50: > 100 µM (inactive)
[56]
  GI50: > 100 µM (inactive)
[20]
  GI50: > 100 µM (inactive)
[21]
  GI50: > 100 µM (inactive)
[22]
  GI50: 54.8 µM (inactive)
[23]
  GI50: > 100 µM (inactive)
[57]
  GI50: > 100 µM (inactive)
[24]
  GI50: > 100 µM (inactive)
[25]
  GI50: > 100 µM (inactive)
[26]
  GI50: > 100 µM (inactive)
[27]
  GI50: > 100 µM (inactive)
[28]
  GI50: > 100 µM (inactive)
[58]
  GI50: > 100 µM (inactive)
[29]
  GI50: > 100 µM (inactive)
[30]
  GI50: > 100 µM (inactive)
[31]
  GI50: > 100 µM (inactive)
[32]
  GI50: > 100 µM (inactive)
[33]
  GI50: > 100 µM (inactive)
[35]
  GI50: > 100 µM (inactive)
[36]
  GI50: > 100 µM (inactive)
[38]
  GI50: > 100 µM (inactive)
[39]
  GI50: > 100 µM (inactive)
[40]
  GI50: > 100 µM (inactive)
[41]
  GI50: 89.5 µM (inactive)
[42]
  GI50: 95.1 µM (inactive)
[43]
  GI50: > 100 µM (inactive)
[44]
  GI50: 73.6 µM (inactive)
[45]
  GI50: > 100 µM (inactive)
[46]
  GI50: > 100 µM (inactive)
[47]
  GI50: > 100 µM (inactive)
[48]
  GI50: > 100 µM (inactive)
[49]
  GI50: > 100 µM (inactive)
[50]
  GI50: > 100 µM (inactive)
[51]
  GI50: > 100 µM (inactive)
[59]
  GI50: 75.3 µM (inactive)
